Results published in ChEMBL document CHEMBL5370643, “Discovery of MK-1468: A Potent, Kinome-Selective, Brain-Penetrant Amidoisoquinoline LRRK2 Inhibitor for the Potential Treatment of Parkinson's Disease” (J Med Chem, 2023).
pIC50: −log10 of the molar value.

Columns and labels:
[1] = target: Leucine-rich repeat serine/threonine-protein kinase 2 (Homo sapiens) (UniProt Q5S007); experiment: Inhibition of LRRK2 in human PBMC using LRRKtide peptide as substrate assessed as Ser935 dephosphorylation preincubated with compound for 15 mins followed by substrate addition and measured after 90 mins in presence of ATP by TR-FRET assay; type: cell-based; details: time 105.0 min
Sequence of Leucine-rich repeat serine/threonine-protein kinase 2 (Homo sapiens) (Q5S007 whole entry): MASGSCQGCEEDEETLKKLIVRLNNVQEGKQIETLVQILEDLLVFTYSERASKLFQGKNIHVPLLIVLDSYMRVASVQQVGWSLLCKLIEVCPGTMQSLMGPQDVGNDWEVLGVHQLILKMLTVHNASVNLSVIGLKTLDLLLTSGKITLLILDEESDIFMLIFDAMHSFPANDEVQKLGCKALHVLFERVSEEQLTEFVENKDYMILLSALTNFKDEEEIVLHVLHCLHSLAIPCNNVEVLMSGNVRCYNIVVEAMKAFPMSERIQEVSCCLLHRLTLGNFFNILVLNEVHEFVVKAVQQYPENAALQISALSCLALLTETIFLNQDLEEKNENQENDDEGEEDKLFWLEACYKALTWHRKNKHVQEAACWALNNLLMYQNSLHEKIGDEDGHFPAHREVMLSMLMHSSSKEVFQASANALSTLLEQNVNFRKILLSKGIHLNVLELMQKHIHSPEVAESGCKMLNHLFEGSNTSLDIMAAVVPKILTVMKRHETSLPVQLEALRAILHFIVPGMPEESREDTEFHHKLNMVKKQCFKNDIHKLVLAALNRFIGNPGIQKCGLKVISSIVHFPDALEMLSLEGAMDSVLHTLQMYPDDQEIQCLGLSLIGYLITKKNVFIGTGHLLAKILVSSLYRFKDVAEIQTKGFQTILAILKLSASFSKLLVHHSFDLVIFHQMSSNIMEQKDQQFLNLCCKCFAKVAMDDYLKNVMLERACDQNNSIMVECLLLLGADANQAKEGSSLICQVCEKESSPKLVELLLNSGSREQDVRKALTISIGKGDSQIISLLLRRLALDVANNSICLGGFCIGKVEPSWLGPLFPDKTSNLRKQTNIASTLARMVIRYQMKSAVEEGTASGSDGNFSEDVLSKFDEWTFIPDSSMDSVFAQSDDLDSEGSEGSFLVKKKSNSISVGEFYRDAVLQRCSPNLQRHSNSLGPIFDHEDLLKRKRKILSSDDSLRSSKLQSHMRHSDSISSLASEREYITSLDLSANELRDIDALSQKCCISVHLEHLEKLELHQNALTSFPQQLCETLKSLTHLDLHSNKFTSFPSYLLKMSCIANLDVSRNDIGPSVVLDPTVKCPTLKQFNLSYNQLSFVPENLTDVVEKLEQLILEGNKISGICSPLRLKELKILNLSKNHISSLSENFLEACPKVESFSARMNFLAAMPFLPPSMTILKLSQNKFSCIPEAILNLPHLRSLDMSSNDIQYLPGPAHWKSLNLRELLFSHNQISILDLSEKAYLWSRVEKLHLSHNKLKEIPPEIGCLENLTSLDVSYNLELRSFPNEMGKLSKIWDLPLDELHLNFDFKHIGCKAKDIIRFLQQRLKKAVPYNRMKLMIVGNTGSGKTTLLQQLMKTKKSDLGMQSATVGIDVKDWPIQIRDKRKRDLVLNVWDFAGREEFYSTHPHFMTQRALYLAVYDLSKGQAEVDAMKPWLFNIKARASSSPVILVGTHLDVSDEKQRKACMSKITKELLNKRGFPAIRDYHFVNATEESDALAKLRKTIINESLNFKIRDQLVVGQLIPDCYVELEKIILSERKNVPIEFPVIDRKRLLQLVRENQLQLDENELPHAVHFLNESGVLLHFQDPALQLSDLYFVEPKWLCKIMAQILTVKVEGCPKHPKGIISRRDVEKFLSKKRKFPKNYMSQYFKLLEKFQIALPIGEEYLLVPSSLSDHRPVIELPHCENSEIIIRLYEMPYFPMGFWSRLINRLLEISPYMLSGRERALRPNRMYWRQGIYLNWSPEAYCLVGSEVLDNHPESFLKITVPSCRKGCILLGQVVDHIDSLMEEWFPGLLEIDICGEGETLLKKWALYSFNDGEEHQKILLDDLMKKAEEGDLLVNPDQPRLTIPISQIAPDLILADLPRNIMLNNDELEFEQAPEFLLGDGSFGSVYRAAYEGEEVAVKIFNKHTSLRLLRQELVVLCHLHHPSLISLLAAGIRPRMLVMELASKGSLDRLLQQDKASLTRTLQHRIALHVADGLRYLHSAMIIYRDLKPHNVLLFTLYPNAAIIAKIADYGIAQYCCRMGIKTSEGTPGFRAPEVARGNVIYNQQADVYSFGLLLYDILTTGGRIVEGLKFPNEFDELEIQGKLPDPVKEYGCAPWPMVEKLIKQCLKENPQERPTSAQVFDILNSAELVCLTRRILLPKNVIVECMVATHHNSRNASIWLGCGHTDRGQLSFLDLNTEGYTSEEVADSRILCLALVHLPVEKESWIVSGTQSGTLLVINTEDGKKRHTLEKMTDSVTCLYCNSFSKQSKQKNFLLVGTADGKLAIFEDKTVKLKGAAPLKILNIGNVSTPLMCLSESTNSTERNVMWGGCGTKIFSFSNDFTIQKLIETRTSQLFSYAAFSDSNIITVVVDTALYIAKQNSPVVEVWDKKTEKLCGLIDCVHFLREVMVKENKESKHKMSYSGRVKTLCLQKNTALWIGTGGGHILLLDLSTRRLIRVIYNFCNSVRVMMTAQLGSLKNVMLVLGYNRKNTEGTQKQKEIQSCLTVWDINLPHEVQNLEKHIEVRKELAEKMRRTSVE

[2] = MRT in Wistar-Han rat at 2 mg/kg, iv measured after 24 hrs by LC-MS/MS analysis; type: ADME, organism-based; details: in vivo
[3] = Oral bioavailability in Wistar-Han rat at 5 mg/kg measured after 24 hrs by LC-MS/MS analysis; type: ADME, organism-based; details: in vivo
[4] = Drug metabolism in dog assessed as oxidative metabolism of piperazine-THF alcohol lysine region fragment by MetID analysis; type: ADME, Canis lupus familiaris
[5] = Intrinsic clearance in Wistar-Han rat at 2 mg/kg, iv measured after 24 hrs by LC-MS/MS analysis; type: ADME, organism-based; details: in vivo
[6] = Drug metabolism in dog assessed as amide hydrolysis mediated metabolite formation by MetID analysis; type: ADME, Canis lupus familiaris
[7] = Drug metabolism in rat assessed as oxidative metabolism of piperazine-THF alcohol lysine region fragment by MetID analysis; type: ADME
[8] = Total clearance in Wistar-Han rat at 2 mg/kg, iv measured after 24 hrs by LC-MS/MS analysis; type: ADME, organism-based; details: in vivo
[9] = Drug metabolism in rat assessed as amide hydrolysis mediated metabolite formation by MetID analysis; type: ADME
[10] = target: Leucine-rich repeat serine/threonine-protein kinase 2 (Homo sapiens, UniProt Q5S007, G2019S); experiment: Inhibition of recombinant N-terminal GST-fused LRRK2 […] mutant (970 to 2527 residues) (unknown origin) using LRRKtide peptide as substrate assessed as inhibition of substrate phosphorylation preincubated with compound for 15 mins followed by substrate addition and measured after 90 mins in presence of ATP by TR-FRET assay
Sequence of Leucine-rich repeat serine/threonine-protein kinase 2 (Q5S007 whole entry G2019S, the tested form may be a part): as the sequence (Q5S007 whole entry) above, with G2019S counted along it

[11] = Mutagenicity in Salmonella typhimurium TA98 at 30 to 5000 ug/plate incubated for 48 hrs in presence of Wistar-Han rat S9 fraction by Ames test; type: toxicity, subcellular; details: salmonella enterica subsp. enterica serovar typhimurium, s9, 48 h
[12] = Mutagenicity in Salmonella typhimurium TA1535 at 30 to 5000 ug/plate incubated for 48 hrs in absence of Wistar-Han rat S9 fraction by Ames test; type: toxicity; details: salmonella enterica subsp. enterica serovar typhimurium, s9, 48 h
[13] = Mutagenicity in Salmonella typhimurium TA100 at 30 to 5000 ug/plate incubated for 48 hrs in presence of Wistar-Han rat S9 fraction by Ames test; type: toxicity, subcellular; details: salmonella enterica subsp. enterica serovar typhimurium, s9, 48 h
[14] = Mutagenicity in Salmonella typhimurium TA98 at 30 to 5000 ug/plate incubated for 48 hrs in absence of Wistar-Han rat S9 fraction by Ames test; type: toxicity; details: salmonella enterica subsp. enterica serovar typhimurium, s9, 48 h
[15] = Mutagenicity in Salmonella typhimurium TA100 at 30 to 5000 ug/plate incubated for 48 hrs in absence of Wistar-Han rat S9 fraction by Ames test; type: toxicity; details: salmonella enterica subsp. enterica serovar typhimurium, s9, 48 h
[16] = Mutagenicity in Salmonella typhimurium TA1535 at 30 to 5000 ug/plate incubated for 48 hrs in presence of Wistar-Han rat S9 fraction by Ames test; type: toxicity, subcellular; details: salmonella enterica subsp. enterica serovar typhimurium, s9, 48 h
rat Mdrl1 P-gp = experiment: Efflux ratio of apparent permeability across basolateral to apical over apical to basolateral side in MDCK cells transfected with rat Mdrl1 P-gp incubated for 3 hrs by LC-MS/MS analysis; details: dog, MDCK-MDR1
[17] = Intrinsic clearance in Wistar-Han rat at 0.1 mg/kg, iv administered as cassette dose by LC-MS/MS analysis; type: ADME, organism-based; details: in vivo
[18] = MRT in Wistar-Han rat at 0.1 mg/kg, iv administered as cassette dose by LC-MS/MS analysis; type: ADME, organism-based; details: in vivo
[19] = Total clearance in Wistar-Han rat at 0.1 mg/kg, iv administered as cassette dose by LC-MS/MS analysis; type: ADME, organism-based; details: in vivo
rat Mdr1a P-gp = experiment: Apparent permeability across apical to basolateral side in LLC-PK1 cells transfected with rat Mdr1a P-gp incubated for 3 hrs by LC-MS/MS analysis; details: pig
[20] = Lipophilicity, logD of compound at pH 7 by HT-HPLC/DAD analysis; type: physicochemical; details: buffer
[21] = target: Voltage-gated inwardly rectifying potassium channel KCNH2 (Homo sapiens, UniProt Q12809); experiment: Inhibition of hERG expressed in CHO cells by QPatch voltage clamp assay
Sequence of Voltage-gated inwardly rectifying potassium channel KCNH2 (Q12809 whole entry): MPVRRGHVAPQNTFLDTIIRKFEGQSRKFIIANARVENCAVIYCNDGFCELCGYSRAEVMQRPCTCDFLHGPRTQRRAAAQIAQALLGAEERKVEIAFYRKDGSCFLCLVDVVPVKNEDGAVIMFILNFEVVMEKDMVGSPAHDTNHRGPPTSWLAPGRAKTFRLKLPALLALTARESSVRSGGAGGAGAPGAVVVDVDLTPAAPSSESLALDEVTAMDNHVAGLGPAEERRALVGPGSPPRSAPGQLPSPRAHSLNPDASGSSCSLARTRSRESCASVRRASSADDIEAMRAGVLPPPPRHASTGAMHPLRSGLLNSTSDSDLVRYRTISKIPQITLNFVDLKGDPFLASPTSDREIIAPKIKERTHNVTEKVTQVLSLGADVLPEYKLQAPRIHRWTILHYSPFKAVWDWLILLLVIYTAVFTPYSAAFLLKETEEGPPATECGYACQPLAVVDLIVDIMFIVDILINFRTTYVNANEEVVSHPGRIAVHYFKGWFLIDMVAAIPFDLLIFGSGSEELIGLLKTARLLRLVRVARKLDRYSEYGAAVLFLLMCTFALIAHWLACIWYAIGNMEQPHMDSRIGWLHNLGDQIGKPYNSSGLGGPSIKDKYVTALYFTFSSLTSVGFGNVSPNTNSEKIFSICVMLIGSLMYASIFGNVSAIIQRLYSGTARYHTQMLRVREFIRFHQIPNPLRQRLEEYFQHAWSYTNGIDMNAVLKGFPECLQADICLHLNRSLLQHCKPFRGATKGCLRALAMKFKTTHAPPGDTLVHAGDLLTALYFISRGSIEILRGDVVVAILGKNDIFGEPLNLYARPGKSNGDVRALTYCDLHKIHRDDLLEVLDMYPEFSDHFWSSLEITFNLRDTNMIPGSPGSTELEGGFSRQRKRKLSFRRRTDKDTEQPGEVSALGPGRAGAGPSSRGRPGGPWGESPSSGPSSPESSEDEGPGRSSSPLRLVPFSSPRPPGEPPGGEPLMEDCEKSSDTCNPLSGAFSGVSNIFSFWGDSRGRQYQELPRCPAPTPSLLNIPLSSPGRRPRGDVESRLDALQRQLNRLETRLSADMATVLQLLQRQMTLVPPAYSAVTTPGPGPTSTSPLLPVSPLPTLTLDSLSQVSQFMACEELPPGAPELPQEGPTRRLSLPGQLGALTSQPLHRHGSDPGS

[22] = Intrinsic clearance in Beagle dog at 0.05 mg/kg, iv administered as cassette dose by LC-MS/MS analysis; type: ADME, organism-based, Canis lupus familiaris; details: in vivo
[23] = MRT in Beagle dog at 0.05 mg/kg, iv administered as cassette dose by LC-MS/MS analysis; type: ADME, organism-based, Canis lupus familiaris; details: in vivo
[24] = Total clearance in Beagle dog at 0.05 mg/kg, iv administered as cassette dose by LC-MS/MS analysis; type: ADME, organism-based, Canis lupus familiaris; details: in vivo
[25] = Oral bioavailability in Wistar-Han rat at 10 mg/kg measured after 24 hrs by LC-MS/MS analysis; type: ADME, organism-based; details: in vivo
[26] = target: T1, Serine/threonine-protein kinase BRSK1 (Homo sapiens, UniProt Q8TDC3); experiment: Inhibition of BRSK1 (unknown origin)
T1 sequence (Q8TDC3 whole entry): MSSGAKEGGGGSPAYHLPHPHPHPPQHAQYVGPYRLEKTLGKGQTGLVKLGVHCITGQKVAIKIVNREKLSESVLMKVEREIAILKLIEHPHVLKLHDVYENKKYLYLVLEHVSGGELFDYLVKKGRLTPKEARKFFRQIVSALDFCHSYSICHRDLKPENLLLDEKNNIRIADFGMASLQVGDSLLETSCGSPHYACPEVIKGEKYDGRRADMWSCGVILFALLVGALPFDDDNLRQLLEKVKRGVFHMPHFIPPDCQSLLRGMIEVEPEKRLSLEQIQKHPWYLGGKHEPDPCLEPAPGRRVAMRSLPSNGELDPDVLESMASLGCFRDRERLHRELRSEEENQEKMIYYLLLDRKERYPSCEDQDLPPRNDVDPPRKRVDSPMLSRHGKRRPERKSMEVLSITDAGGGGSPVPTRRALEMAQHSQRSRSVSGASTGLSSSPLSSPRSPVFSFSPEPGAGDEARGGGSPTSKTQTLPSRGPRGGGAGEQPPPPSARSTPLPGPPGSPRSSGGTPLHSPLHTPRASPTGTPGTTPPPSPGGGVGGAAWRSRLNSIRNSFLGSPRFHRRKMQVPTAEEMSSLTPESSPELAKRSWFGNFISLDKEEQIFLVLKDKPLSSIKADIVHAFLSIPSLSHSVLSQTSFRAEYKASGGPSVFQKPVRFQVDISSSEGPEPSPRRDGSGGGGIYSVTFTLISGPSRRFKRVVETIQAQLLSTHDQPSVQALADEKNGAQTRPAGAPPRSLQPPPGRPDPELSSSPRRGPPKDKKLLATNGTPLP

[27] = Unbound brain-to-plasma concentration ratio in iv dosed Wistar-Han rat administered as cassette dose by LC-MS/MS analysis; type: ADME, organism-based; details: read-out: K(p,uu,brain)
mouse BCRP = experiment: Efflux ratio of apparent permeability across basolateral to apical over apical to basolateral side in MDCK-II cells transfected with mouse BCRP incubated for 3 hrs by LC-MS/MS analysis; details: dog

C[C@@]1(N2CCC(c3cc4cc(NC(=O)[C@H]5C[C@@H]5c5ccccn5)ncc4cc3Cl)CC2)COC[C@@H]1O
fIC50 [1]: 0.2 nM | MRT [2]: 5.6 h | bioavailability [3]: 46% | Drug metabolism [4]: Metabolite_Detected | CL [5]: 341 mL/min/kg | Drug metabolism [6]: Metabolite_Detected | Drug metabolism [7]: Metabolite_Detected | clearance [8]: 13 mL/min/kg | Drug metabolism [9]: Metabolite_Notdetected

Cn1cc(C(=O)Nc2cc3cc(C4CCN([C@]5(C)COC[C@@H]5O)CC4)c(Cl)cc3cn2)cn1
fIC50 [1]: 112 nM | pIC50 [10]: 9.10

C[C@@]1(N2CCN(c3cc4cc(N)ncc4cc3Cl)CC2)COC[C@@H]1O
Activity [11]: Non-Toxic | Activity [12]: Non-Toxic | Activity [13]: Non-Toxic | Activity [14]: Non-Toxic | Activity [15]: Non-Toxic | Activity [16]: Non-Toxic

CC(C)(O)[C@H]1C[C@H]1C(=O)Nc1cc2cc(C3CCN([C@]4(C)COC[C@@H]4O)CC3)c(Cl)cc2cn1
pIC50 [10]: > 10.10 | efflux ratio at 3 h (rat Mdrl1 P-gp): 9 | CL [17]: 276 mL/min/kg | MRT [18]: 3.1 h | clearance [19]: 22 mL/min/kg | Papp A→B at 3 h (rat Mdr1a P-gp): 33 ×10⁻⁶ cm/s

Cc1cc2cnc(NC(=O)C3CC34CC4)cc2cc1C1CCN([C@]2(C)COC[C@@H]2O)CC1 (some centres not stated)
fIC50 [1]: 12 nM | pIC50 [10]: > 10.10 | logD [20]: 3.6 | pIC50 [21]: 5.32 | CL [17]: 241 mL/min/kg | MRT [18]: 3.2 h | clearance [19]: 31 mL/min/kg | CL [22]: 76 mL/min/kg | MRT [23]: 9.8 h | clearance [24]: 10 mL/min/kg

C[C@@]1(N2CCC(c3cc4cc(N)ncc4cc3Cl)CC2)COC[C@@H]1O
Activity [11]: Non-Toxic | Activity [12]: Non-Toxic | Activity [13]: Non-Toxic | Activity [14]: Non-Toxic | Activity [15]: Non-Toxic | Activity [16]: Non-Toxic

Cn1cc([C@H]2C[C@@H]2C(=O)Nc2cc3cc(C4CCN([C@]5(C)COC[C@@H]5O)CC4)c(Cl)cc3cn2)cn1
fIC50 [1]: 0.28 nM | pIC50 [10]: 9.30 | efflux ratio at 3 h (rat Mdrl1 P-gp): 12 | pIC50 [21]: 5.02 | CL [17]: 302 mL/min/kg | MRT [18]: 4.4 h | clearance [19]: 17 mL/min/kg | Papp A→B at 3 h (rat Mdr1a P-gp): 29 ×10⁻⁶ cm/s

C[C@@]1(N2CCC(c3cc4cc(NC(=O)[C@H]5CC56CCOCC6)ncc4cc3Cl)CC2)COC[C@@H]1O
MRT [2]: 2.7 h | bioavailability [25]: 67% | CL [5]: 875 mL/min/kg | clearance [8]: 35 mL/min/kg | CL [22]: 422 mL/min/kg | MRT [23]: 12 h | clearance [24]: 18 mL/min/kg

C[C@@]1(N2CCC(c3cc4cc(NC(=O)C5CC5)ncc4cc3Cl)CC2)COC[C@@H]1O
fIC50 [1]: 4.5 nM | pIC50 [26]: 7.37 | pIC50 [10]: > 10.10 | CL [17]: 684 mL/min/kg | MRT [18]: 3.2 h | clearance [19]: 12 mL/min/kg

Cn1ccc([C@H]2C[C@@H]2C(=O)Nc2cc3cc(C4CCN([C@]5(C)COC[C@@H]5O)CC4)c(Cl)cc3cn2)n1
fIC50 [1]: 1.2 nM | Kp uu [27]: 0.3 | CL [17]: 731 mL/min/kg | MRT [18]: 2.6 h | clearance [19]: 21 mL/min/kg

COC(C)(C)[C@@H]1C[C@H]1C(=O)Nc1cc2cc(C3CCN([C@]4(C)COC[C@@H]4O)CC3)c(Cl)cc2cn1
Kp uu [27]: 0.3 | CL [17]: 840 mL/min/kg | MRT [18]: 2.1 h | clearance [19]: 41 mL/min/kg

CC1(N2CCC(c3cc4cc(NC(=O)C5CC5)ncc4cc3Cl)CC2)COC1
fIC50 [1]: 168 nM | pIC50 [10]: 8.52 | efflux ratio at 3 h (mouse BCRP): 1.1 | efflux ratio at 3 h (rat Mdrl1 P-gp): 0.9 | CL [17]: 429 mL/min/kg | MRT [18]: 3.3 h | clearance [19]: 10 mL/min/kg | Papp A→B at 3 h (rat Mdr1a P-gp): 34 ×10⁻⁶ cm/s
